Data taken from patent US7214494B2, “Method of screening for substance preventing or treating diseases in association with malfunction of IL-6 family cytokine receptor malfunction” (Saten Pharmaceutical Co., Ltd., priority 2000, dated 2007).

Tested on: arthritis in gp130^F759/F759 mice
Test: Screening test for anti-arthritis agents in gp130F759/F759 mice
Assay type: in vivo, mouse
Conditions: for arthritis score: gp130^F759/F759 mice developing arthritis, methotrexate 0.4 mg/kg orally five days in a week from age of 9 months
Method: gp130^F759/F759 mice or mice obtained by backcrossing of the gp130^F759/F759 mice (gp130^F759/F759-related mice) were used as a model mouse. A test compound of antirheumatic drugs such as bucilamine and methotrexate, nonsteroidal anti-inflammatory drugs such as diclofenac, or steroidal drugs such as dexamethasone was administered. The administration was conducted before the onset of immune disorders or arthritis for screening of prophylactic drugs, whereas after the observation of visible arthritis for screening of therapeutic drugs. The following is to illustrate the screening test for anti-arthritic agents using methotrexate as a test compound, and screening tests for other compounds would be conducted according to a similar manner to the following.
Methotrexate was administered orally at a dose of 0.4 mg/kg to the mice at the aged of 9 months for five days in a week. […] The severity of arthritis was scored based on restricted range of motion, swelling and flare of digit joints, and the presence or absence of rigidity. The mice whose arthritis conditions were observed constantly for two weeks or more were estimated as developed animal, and incident and severity were determined with time course.

CN(Cc1cnc2nc(N)nc(N)c2n1)c1ccc(C(=O)N[C@@H](CCC(=O)O)C(=O)O)cc1 [methotrexate]
arthritis score (aged 48 weeks (12-month-old), control 4.33±1.86): 1.33±0.33 | arthritis score (aged 53 weeks, control 4.67±0.67): 0.67±0.33 | effect on arthritis in the mouse model (gp130^F759/F759 mice, 0.4 mg/kg orally): inhibits the arthritis
